Assay results taken from patent publication US12502369B2, “Methods of cancer treatment” (K-GEN, INC., priority 2015, dated 2025).
Entries after “also recorded” stand apart in the source; their conditions may differ.

What was measured:
[1] = system: PKCμ and PKCδ in Namalwa, Mino, Raji, Daudi; experiment: Activation of PKC isoforms in four lymphoma cell lines, Western blot; assay type: cell-based
Experimental: Western blot analysis was performed as described in Example 2 and 4.

[2] = system: Cancer cell lines (161 different lines); experiment: Proliferation assay, 161 cancer cell lines, 72 hours; assay type: cell-based
Experimental: Cells were treated for 72 hours instead of 96 hours. Thus, cell numbers from individual cell line were optimized so that cells were ˜70-80% confluent in 72 hours when treated with vehicle only. […] A number of other cancer cell lines from bladder, ovarian, myeloma, prostrate, and renal cancers are also sensitive to K-101A. Most cell lines from liver and lung (SCLC) are resistant to K101A.

[3] = literature reports; cited from earlier work
Wnt signaling pathway = experiment: TOPFlash / TK-RL Dual Luciferase assay (Wnt signaling), A549; assay type: cell-based; conditions: 24 hours, K101A 1, 3, 10 μM, K102 0.03, 0.1, 0.3 μM
Experimental: A549 cells (20K cells/well) were seeded in 96-well plates on Day 1. Cells were transfected with a mixture of TOPFlash firefly luciferase reporter plasmid M50 (300 ng/well) (Adagene) and an internal control plasmid pRL-TK-Renilla luciferase (20 ng/well) (Promega) using FuGene transfection reagent (plasmid:FuGene=1:4) (Promega) on Day 2. […] Luciferase activities in treated cells were measured using Dual-Glo Luciferase Kit according to manufacturer's instructions (Promega) on Envision (Perkin Elmer). TOPFlash has been used as a reporter for activation of Wnt signaling pathway. […] It has been reported that PKC activators, via suppression of K-Ras stemness pathway, can block canonical Wnt signaling in pancreatic cancer cells. The data here indicate that PKC activator can also block canonical Wnt signaling in lung cancer cells.

phospho-PKC (pan) = experiment: Western blot of phospho-PKC (pan) in A549 cells; assay type: cell-based
Experimental: Cancer cells (2-8 million cells) were seeded in 10 cm dishes and grown overnight. For A549 lung cancer cell line, about 3 million cells were seeded. Cells were then treated with different drugs at indicated concentrations (see Table 8) for a period of time up to 48 hours. Cells were lysed in 0.3-0.5 mL of RIPA buffer (Sigma) supplemented with protease inhibitors (Roche) and phosphatase inhibitors (Sigma). Lysates were assayed for protein concentration using BCA kit (Pierce). Normalized amount of lysates (20-30 μg protein/lane) were run on 4-12% NuPage gel (Life Technologies) and the proteins were transferred to the PVDF or nitrocellulose membrane using iBlot® Transfer Stack (Life Technologies). The membranes were probed with primary antibodies shown in Table 8 at 4° C. overnight after blocking with 1×TBST containing 5% non-fat milk. Antibodies from other vendors could also be used in Western blot analysis. After washing 5 times with 1×TBS containing 0.1% Tween20, the membranes were probed with 2nd antibodies Anti-mouse IgG Dylight 800 conjugate or Anti-rabbit IgG DyLight 680 conjugate (1:10000; Cell signaling or similar IR 2nd antibodies from different vendors) at room temperature for one hour. After washing 5 times, the membranes were scanned using Odyssey® Imaging System (Licor Biosciences).

PKCμ = PKCμ phosphorylation in A549, HCT116, SW620, Panc02.13 cells, Western blot; assay type: cell-based; conditions: 30 minutes
Experimental: Non-cancerous lung fibroblast cell line HFL-1 or cancer cells (2-8 million cells) were seeded in 10 cm dishes and grown overnight so that the cells were about 40-80% confluent before treatment with the compound. Cells were then treated with different drugs at indicated concentrations (see descriptions for FIG. 11 and FIG. 12) for 30 minutes. Cell lysate preparation, protein quantitation, SDS-PAGE, and Western blotting procedures are described in Example 2 and 4. Primary antibodies used in this Example and later Examples of this application are shown in Table A. Secondary antibodies Anti-mouse IgG HRP conjugate or Anti-rabbit IgG HRP conjugate (dilutions from 1:2000-1:10000) were used. Western blot membranes were scanned using Imagequant LAS4000 (GE).

[4] = system: K-Ras mutant pancreatic, lung, and colon cancer cell lines, leukemia cell lines; experiment: Proliferation assays, panel of cancer cell lines (summary statements); assay type: cell-based
Experimental: Briefly, cells at a density of 1,000-10,000 cells/well were seeded in 96-well plates and incubated at 37′C for 24 hours. A series of 9 different concentrations of compound stocks (500×) were created by 3-fold serial dilution in DMSO. These compounds were further diluted in culture media and then added to cells so that the final DMSO concentration was 0.2%. After 96 hours of incubation, 50 μL of CellTiter Glo reagent (Promega) was added to each well and luminescence was measured after 10 minutes using EnVision (PerkinElmer). […] The dose range for most compounds was 4.6 nM-30 μM. The dose ranges for some compounds were adjusted downward to 0.46 nM-3 μM or 0.08 nM-0.5 μM or 0.03 nM-0.2 μM. Luminescence from cells treated with […] alone was set as Max and % of inhibition was calculated as follows: Inhibition %=(Max-Sample value)/Max*100. Data was analyzed using XL-fit software (ID Business Solutions Ltd.) and EC50, relative EC50, and % of top inhibition were calculated. The results are shown in Tables 3-6 for pancreatic cancer, lung cancer, colon/gastric cancer, and leukemia cell lines.

CC(=O)O[C@@]12C[C@@H](C)[C@]3(O)C4C=C(C)C(=O)[C@@]4(O)CC(CO)=C[C@H]3[C@@H]1C2(C)C (some centres unmarked) [Compound K-101A, Prostratin]
phosphorylation of PKCμ at Ser744/748 and Ser916 and PKCδ at Thr505 [1]: induced in all cell lines | proportion of phosphorylated PKCμ at Ser916/total PKCμ [1]: much greater in two sensitive cell lines | sensitivity of most cell lines from liver and lung (SCLC) [2]: resistant | cell lines showing top inhibition above 30% ([2]; 161 cell lines): Roughly 50 % of the cell lines | cell lines showing top inhibition above 50% ([2]; 161 cell lines): ~25 % of the cell lines | lines having a top inhibition above 30% ([2]; breast cancer cell lines): 9 out of 18 | lines having a top inhibition above 30% ([2]; leukemia cell lines): 10 out of 11 | tumor promotion [3]: non-tumor-promoting | maximal inhibition of TOPFlash activity (Wnt signaling pathway): about 60% | phospho-PKC (pan) level (phospho-PKC (pan); 0.5 uM of K-101A): without affecting | phospho-PKC (pan) levels (phospho-PKC (pan); 48 hours, K-103, K-102 at 0.5 μM, K-101A at 2.5 μM): reduction

C/C=C(/C)C(=O)O[C@H]1C(C)=C[C@]23C(=O)[C@@H](C=C(CO)[C@@H](O)[C@]12O)[C@H]1[C@@H](C[C@H]3C)C1(C)C [Compound K-102, Ingenol-3-angelate, reference compound]
PKCμ activation, phosphorylation at Ser744/748 (PKCμ): observed for all four cancer cell lines | PKCμ activation, phosphorylation at Ser916 (PKCμ): observed primarily in cell lines A549 and Pan 02,13; also recorded: observed primarily in cell lines A549 and Panc02.13 | potency in proliferation inhibition relative to prostratin [4]: more potent in proliferation inhibition
